# Experimental data: patent US11583533B2, “Topical pharmaceutical compositions comprising 2-[3-[4-amino-3-(2-fluoro-4-phenoxy-phenyl)-1H-pyrazolo[3,4-d]pyrimidin-1-yl]piperidine-1-carbonyl]-4,4-dimethylpent-2-enenitrile” (Principia Biopharma Inc., priority 2020, dated 2023)
# Experiment: Skin penetration of Compound (I) into the dermis and epidermis
# Assay type: in vitro ADME
# Conditions: human abdominal skin from elective surgery (500±50 μm)
# Protocol: Using skin from one donor (n=4-5 replicates per condition) and a receptor solution comprising phosphate/citrate buffer pH 5.6 with 0.01% Brij 98, a dose of 10 mg/cm^2 Compound (I) was applied in the form of one of three 2% Compound (I) gel formulations comprising one of crystalline Form (I), amorphous Compound (I), or crystalline Form (II). Samples were collected every 3 hours for 24 hours. Prior to separating the epidermis and dermis, the residual formulation was removed from the surface of the skin, and then the skin surface was tape stripped up to 5 times to remove residual formulation and the top of the skin surface layers (stratum corneum). The dermis and epidermis were separated by heating to 60° C. for 2 minutes, followed by manual separation using forceps. The extraction fluid used was 90:10 acetonitrile:water with 0.1% BHT. Epidermis and dermis samples were homogenized, then shaken at 130 RPM overnight, and transferred to lo-bind DW96 plates.
structure (smiles),measurement,value
"CC(C)(C)C=C(C#N)C(=O)N1CCCC(n2nc(-c3ccc(Oc4ccccc4)cc3F)c3c(N)ncnc32)C1 (stereo not shown) [Compound (I), 2-(3-(4-amino-3-(2-fluoro-4-phenoxyphenyl)-1H-pyrazolo[3,4-d]pyrimidin-1-yl)piperidine-1-carbonyl)-4,4-dimethylpent-2-enenitrile]",ability to penetrate skin into the dermis and epidermis,able to penetrate
